Data published in US10577395B2 (priority 2014, dated 2020).
Converted amounts (≈) assume the structure as drawn. Where two headings read alike, the source gives them in different places.

Experiments:
[1] = test system: vancomycin-sensitive Staphylococcus aureus (VSSA strain ATCC 25923); assay: Antimicrobial assay, MIC, vancomycin-sensitive S. aureus; format: cell-based; details: ATCC 25923; for MIC: Staphylococcus aureus
Protocol: (§1) Assays were carried out following the methods of Clinical and Laboratory Standards Institute; Methods for Dilution Antimicrobial Susceptibility Tests for Bacteria That Grow Aerobically; Approved Standard, […].; CLSI document M07-A8; Clinical and Laboratory Standards Institute: Wayne, Pa., 2009.
(§2) This diluted bacterial stock solution was then inoculated into a well of a V-shaped 96-well glass coated microtiter plate, supplemented with serial diluted aliquots of the antibiotic solution DMSO (4 μL), to achieve a total assay volume of 0.1 mL. The plate was then incubated at 37° C. for 18 hours, after which minimal inhibitory concentrations (MICs) were determined by monitoring the cell growth (observed as a pellet) in the wells. The lowest concentration of antibiotic (in μg/mL) capable of eliminating the cell growth in the wells is reported as the MIC.

[2] = test system: panel of Gram-positive bacteria (VSSA, MRSA, VanA and VanB VRE); assay: Antimicrobial assay, MIC across the bacterial panel; format: cell-based, S. aureus, E. faecalis, E. faecium; details: Staphylococcus aureus, read-out: MICs across the bacterial panel, vancomycin-sensitive and vancomycin-resistant strains
Protocol: as §1, §2

[3] = test system: vancomycin-resistant Enterococcus faecalis (VanA VRE, BM4166); assay: microbe, parasite or virus in culture; format: cell-based; details: for MIC: Enterococcus faecalis, VRE
Protocol: as §1, §2

[4] = test system: vancomycin-resistant Enterococcus faecalis (VanB VRE, strain ATCC 51299); assay: microbe, parasite or virus in culture; format: cell-based; details: for MIC: Enterococcus faecalis
Protocol: as §1, §2

[5] = test system: Enterococcus faecium (VanA VRE, ATCC BAA-2317); assay: Antimicrobial assay, MIC, VanA E. faecium; format: cell-based; details: for MIC: Enterococcus faecium
Protocol: as §1, §2

[6] = test system: methicillin and oxacillin-resistant Staphylococcus aureus subsp. aureus (MRSA strain ATCC 43300); assay: Antimicrobial assay, MIC, MRSA; format: cell-based; details: for MIC: Staphylococcus aureus
Protocol: as §1, §2

[7] = ATCC25923, read-out: MIC, sensitive S. aureus, serum concentration 10%, 10%
[8] = ATCC25923, read-out: MIC, sensitive S. aureus, serum concentration 100%, 100%
[9] = ATCC25923, 25%, read-out: MIC, sensitive S. aureus, serum concentration 25%
[10] = ATCC25923, read-out: MIC, sensitive S. aureus
[11] = read-out: MIC, Van A E. faecalis, serum concentration 10%
[12] = read-out: MIC, Van A E. faecalis, serum concentration 25%
[13] = read-out: MIC, Van A E. faecalis, serum concentration 100%
[14] = read-out: MIC, VanA E. faecalis
[15] = read-out: MIC, Van B E. faecalis, serum concentration 10%
[16] = read-out: MIC, Van B E. faecalis, serum concentration 25%
[17] = read-out: MIC, Van B E. faecalis, serum concentration 100%
[18] = read-out: MIC, VanB E. faecalis
[19] = read-out: MIC, Van A E. faecium, serum concentration 10%
[20] = read-out: MIC, Van A E. faecium, serum concentration 25%
[21] = read-out: MIC, Van A E. faecium, serum concentration 100%
[22] = read-out: MIC, MRSA S. aureus, serum concentration 10%
[23] = read-out: MIC, MRSA S. aureus, serum concentration 25%
[24] = read-out: MIC, MRSA S. aureus, serum concentration 100%

Structure (SMILES): CN[C@H](CC(C)C)C(=O)N[C@H]1C(=O)N[C@@H](CC(N)=O)C(=O)N[C@H]2C(=S)NC3C(=O)N[C@H](C(=O)N[C@H](C(=O)O)c4cc(O)cc(O)c4-c4cc3ccc4O)[C@H](O)c3ccc(c(Cl)c3)Oc3cc2cc(c3OC2OC(CO)C(O)[C@H](O)[C@@H]2O[C@H]2CC(C)(N)[C@H](O)[C@H](C)O2)Oc2ccc(cc2Cl)[C@H]1O (stereo partly drawn) [Compound 2, [Ψ[C(═S)NH]Tpg^4]vancomycin]
- MIC [1, 7]: > 32 µg/mL
- MIC [1, 8]: > 32 µg/mL
- MIC [1, 9]: > 32 µg/mL
- MIC [1, 10]: > 32 µg/mL
- MIC [2]: > 32 µg/mL
- MIC [3, 11]: > 32 µg/mL
- MIC [3, 12]: > 32 µg/mL
- MIC [3, 13]: > 32 µg/mL
- MIC [3, 14]: > 32 µg/mL
- MIC [4, 15]: > 32 µg/mL
- MIC [4, 16]: > 32 µg/mL
- MIC [4, 17]: > 32 µg/mL
- MIC [4, 18]: > 32 µg/mL
- MIC [5, 19]: > 32 µg/mL
- MIC [5, 20]: > 32 µg/mL
- MIC [5, 21]: > 32 µg/mL
- MIC ([5]; read-out: MIC, VanA E. faecium): > 32 µg/mL
- MIC ([6]; read-out: MIC, MRSA S. aureus): > 32 µg/mL
- MIC [6, 22]: > 32 µg/mL
- MIC [6, 23]: > 32 µg/mL
- MIC [6, 24]: > 32 µg/mL

Structure (SMILES): CN[C@H](CC(C)C)C(=O)N[C@H]1C(=O)N[C@@H](CC(N)=O)C(=O)N[C@H]2C(=N)NC3C(=O)N[C@H](C(=O)N[C@H](C(=O)O)c4cc(O)cc(O)c4-c4cc3ccc4O)[C@H](O)c3ccc(c(Cl)c3)Oc3cc2cc(c3OC2OC(CO)C(O)[C@H](O)[C@@H]2O[C@H]2CC(C)(N)[C@H](O)[C@H](C)O2)Oc2ccc(cc2Cl)[C@H]1O (stereo partly drawn) [Compound 3, [Ψ[C(═NH)NH]Tpg^4]vancomycin]
- MIC [3, 11]: 0.5 µg/mL (≈ 0.345 µM)
- MIC [3, 12]: 8 µg/mL (≈ 5.52 µM)
- MIC [3, 13]: > 32 µg/mL
- MIC [3, 14]: 0.5 µg/mL (≈ 0.345 µM)
- MIC [5, 19]: 0.5 µg/mL (≈ 0.345 µM)
- MIC [5, 20]: 4 µg/mL (≈ 2.76 µM)
- MIC [5, 21]: > 32 µg/mL
- MIC ([5]; read-out: MIC, VanA E. faecium): 0.5 µg/mL (≈ 0.345 µM)

Structure (SMILES): CN[C@H](CC(C)C)C(=O)N[C@H]1C(=O)N[C@@H](CC(N)=O)C(=O)N[C@H]2C(=S)NC3C(=O)N[C@H](C(=O)N[C@H](C(=O)O)c4cc(O)cc(O)c4-c4cc3ccc4O)[C@H](O)c3ccc(c(Cl)c3)Oc3cc2cc(c3OC2OC(CO)C(O)[C@H](O)[C@@H]2O[C@H]2CC(C)(NCc3ccc(-c4ccc(Cl)cc4)cc3)[C@H](O)[C@H](C)O2)Oc2ccc(cc2Cl)[C@H]1O (stereo partly drawn) [Compound 5, N-4-(4′-chlorobiphenyl)-methyl [Ψ[C(═S)NH]Tpg^4]vancomycin]
- MIC [1, 7]: 2 µg/mL (≈ 1.2 µM)
- MIC [1, 8]: 4 µg/mL (≈ 2.4 µM)
- MIC [1, 9]: 2 µg/mL (≈ 1.2 µM)
- MIC [1, 10]: 2 µg/mL (≈ 1.2 µM)
- MIC [2]: 2 to 4 µg/mL (≈ 1.2 to 2.4 µM)
- MIC [3, 11]: 4 µg/mL (≈ 2.4 µM)
- MIC [3, 12]: 4 µg/mL (≈ 2.4 µM)
- MIC [3, 13]: 8 µg/mL (≈ 4.8 µM)
- MIC [3, 14]: 4 µg/mL (≈ 2.4 µM)
- MIC [4, 15]: 2 µg/mL (≈ 1.2 µM)
- MIC [4, 16]: 2 µg/mL (≈ 1.2 µM)
- MIC [4, 17]: 8 µg/mL (≈ 4.8 µM)
- MIC [4, 18]: 2 µg/mL (≈ 1.2 µM)
- MIC [5, 19]: 4 µg/mL (≈ 2.4 µM)
- MIC [5, 20]: 4 µg/mL (≈ 2.4 µM)
- MIC [5, 21]: 8 µg/mL (≈ 4.8 µM)
- MIC ([5]; read-out: MIC, VanA E. faecium): 4 µg/mL (≈ 2.4 µM)
- MIC ([6]; read-out: MIC, MRSA S. aureus): 2 µg/mL (≈ 1.2 µM)
- MIC [6, 22]: 2 µg/mL (≈ 1.2 µM)
- MIC [6, 23]: 4 µg/mL (≈ 2.4 µM)
- MIC [6, 24]: 4 µg/mL (≈ 2.4 µM)

Structure (SMILES): CN[C@H](CC(C)C)C(=O)N[C@H]1C(=O)N[C@@H](CC(N)=O)C(=O)N[C@H]2CNC3C(=O)N[C@H](C(=O)N[C@H](C(=O)O)c4cc(O)cc(O)c4-c4cc3ccc4O)[C@H](O)c3ccc(c(Cl)c3)Oc3cc2cc(c3OC2OC(CO)C(O)[C@H](O)[C@@H]2O[C@H]2CC(C)(N)[C@H](O)[C@H](C)O2)Oc2ccc(cc2Cl)[C@H]1O (stereo partly drawn) [Compound 16, [Ψ[CH2NH]Tpg^4]vancomycin]
- MIC [3, 11]: 31 µg/mL (≈ 21.6 µM)
- MIC [3, 12]: 62 µg/mL (≈ 43.2 µM)
- MIC [3, 13]: 125 µg/mL (≈ 87.1 µM)
- MIC [3, 14]: 31 µg/mL (≈ 21.6 µM)
- MIC [5, 19]: 31 µg/mL (≈ 21.6 µM)
- MIC [5, 20]: 62 µg/mL (≈ 43.2 µM)
- MIC [5, 21]: 125 µg/mL (≈ 87.1 µM)
- MIC ([5]; read-out: MIC, VanA E. faecium): 31 µg/mL (≈ 21.6 µM)

Structure (SMILES): CN[C@H](CC(C)C)C(=O)N[C@H]1C(=O)N[C@@H](CC(N)=O)C(=O)N[C@H]2C(=O)NC3C(=O)N[C@H](C(=O)N[C@H](CO)c4cc(O)cc(O)c4-c4cc3ccc4O)[C@H](O)c3ccc(c(Cl)c3)Oc3cc2cc(c3OC2OC(CO)C(O)[C@H](O)[C@@H]2O[C@H]2CC(C)(N)[C@H](O)[C@H](C)O2)Oc2ccc(cc2Cl)[C@H]1O (stereo partly drawn) [Compound 23, hydroxymethylvancomycin, reference compound]
- MIC, sensitive S. aureus [1]: 0.5 µg/mL (≈ 0.348 µM)
- MIC, VanA E. faecalis ([3]; BM 4166): 250 µg/mL (≈ 174 µM)
- MIC, VanB E. faecalis ([4]; ATCC 51299): 8 µg/mL (≈ 5.57 µM)
- MIC, VanA E. faecium ([5]; ATCC BAA-2317): 250 µg/mL (≈ 174 µM)
- MIC, MRSA S. aureus ([6]; ATCC 43300): 0.5 µg/mL (≈ 0.348 µM)
